{
  "source": "patent US10875863B2",
  "about": "“RIPK2 inhibitors and method of treating cancer with same” (University Health Network, priority 2014, dated 2020)",
  "key": {"[1]": {"test_system": "HCT116 xenografts", "assay": "In vivo response of HCT116 xenografts, tolerability and body weight", "design": "species or system CB-17 SCID mice", "settings": "SCID mice with HCT116 xenografts", "protocol": "HCT116 colon cancer cells were purchased from ATCC (American Type Culture Collections) and cultured in DMEM (Dulbecco's Modified eagle medium—purchased from GIBCO) supplemented with 10% fetal calf serum. Five million cells were injected subcutaneously in the right flank of 6-8 week old male CB-17 SCID mice. When the mean tumor volume reached 80-120 mm^3, mice were randomized into 5 groups (n=5) and received either vehicle (10% NMP, 40% PEG, 50% H2O) or compound at the doses indicated.\nTumor volume and body weight were measured three times weekly. Tumor volume was calculated by the following formula: x^2y/2. Percent tumor growth inhibition after initiation of treatment with compound was calculated by: TGI=100×1−(tumor volumefinal−tumor volumeinitial for compound treated group)/(tumor volumefinal−tumor volumeinitial for […] control group)."}, "[2]": {"test_system": "IL-12-yellow fluorescent protein (YFP) reporter mouse bone marrow dendritic cells", "assay": "IL-12-YFP reporter dendritic cells, flow cytometric analysis", "assay_type": "cell-based", "settings": "24 hours, LPS or Pam3Cys ± 1 μg/ml MDP", "protocol": "(§1) IL-12-yellow fluorescent protein (YFP) reporter mouse bone marrow dendritic cells were stimulated for 24 hours with 0.3 ng/ml LPS±1 μg/ml MDP (i.e., NOD2 agonist) in the presence of Example A3 (FIG. 2A). IL-12-yellow fluorescent protein (YFP) reporter mouse bone marrow dendritic cells were stimulated for 24 hours with 0.3 μg/ml Pam3Cys±1 μg/ml MDP (i.e., NOD2 agonist) in the presence of Example A3 (FIG. 2B). […] Data are represented as the mean±SEM of triplicate measurements. Levels of IL-12 p70 (FIG. 2C, left panel) and TNFα (FIG. 2C, right panel) in the cell culture supernatants from A were measured by ELISA techniques with commercially available kits. […] Data are represented as the mean±SEM of triplicate measurements."}, "[3]": {"test_system": "IL-12 p70", "assay": "IL-12 p70 in dendritic cell culture supernatants by ELISA", "assay_type": "cell-based, mouse", "settings": "supernatants from LPS ± MDP stimulation", "protocol": "as §1"}, "[4]": {"test_system": "TNFα", "assay": "TNFα in dendritic cell culture supernatants by ELISA", "assay_type": "cell-based, mouse", "settings": "supernatants from LPS ± MDP stimulation", "protocol": "as §1"}},
  "data": [
    {"smiles": "Cc1ccccc1-c1cc2nc(Nc3cccc(N4CCOCC4)c3)ncc2[nH]1", "note": "[Example A3, N-(3-morpholinophenyl)-6-(o-tolyl)-5H-pyrrolo[3,2-d]pyrimidin-2-amine]", "values": [
      {"measurement": "mean body weight loss", "setting": "[1]; 92 mg/kg Q.D. p.o.", "result": 7.8, "unit": "%"},
      {"measurement": "tolerability", "setting": "[1]; Q.D. p.o., 18 days", "result": "well tolerated"},
      {"measurement": "mean body weight loss in the treated arms compared to control", "setting": "[1]; treated arms versus control", "result": "less than 6%"},
      {"measurement": "cell viability as assessed by 7AAD exclusion", "setting": "[2]", "result": "no measurable effect"},
      {"measurement": "percentage of YFP positive cells (IL-12 positive cells)", "setting": "[2]", "result": "minimal effect"},
      {"measurement": "mean fluorescence intensity YFP (amount of IL-12)", "setting": "[2]; effect MDP-dependent", "result": "dose-dependent reduction"},
      {"measurement": "levels of IL-12 p70 in cell culture supernatants", "setting": "[3]", "result": "dose-dependent reduction"},
      {"measurement": "levels of TNFα in cell culture supernatants", "setting": "[4]", "result": "dose-dependent reduction"}
    ]}
  ]
}
